In one assay the target is Cbl-b (Homo sapiens (Human), UniProt Q13191). As to the kind of experiment: Cbl-b LCK Ub TR-FRET assay (Cbl-b Lck HTRF). The assay is classed as biochemical. Put shortly: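 TR-FRET (340 nm excitation, 615/665 nm emission) read after adding HA-ubiquitin–UBE2D2 thioester, anti-HA-D2 and streptavidin-Eu. Beforehand, compounds incubated 60 min with biotinylated Cbl-b, then 90 min with His-LCK and ATP (1 mM in 2× mix); IC50 from 10 concentrations, DMSO high and no-LCK low controls.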
On the technique in general: In TR-FRET formats the signal depends on donor and acceptor labels being close together.

The target of a further assay is c-Cbl (Homo sapiens (Human), UniProt P22681). Kind of assay: C-Cbl LCK Ub TR-FRET assay (c-cbl Lck HTRF). In kind it is biochemical. Conditions: for (fold-selectivity): C-cbl Lck HTRF IC50 relative to Cbl-b Lck HTRF IC50. Put shortly: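 Detection reagents added, brief spin, 20 min RT. IC50 fit normalized to no-LCK (low) and DMSO (high) controls.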

Where a name gives a salt, the structure may show the parent alone.

Sequence of Cbl-b (Q13191 40-426): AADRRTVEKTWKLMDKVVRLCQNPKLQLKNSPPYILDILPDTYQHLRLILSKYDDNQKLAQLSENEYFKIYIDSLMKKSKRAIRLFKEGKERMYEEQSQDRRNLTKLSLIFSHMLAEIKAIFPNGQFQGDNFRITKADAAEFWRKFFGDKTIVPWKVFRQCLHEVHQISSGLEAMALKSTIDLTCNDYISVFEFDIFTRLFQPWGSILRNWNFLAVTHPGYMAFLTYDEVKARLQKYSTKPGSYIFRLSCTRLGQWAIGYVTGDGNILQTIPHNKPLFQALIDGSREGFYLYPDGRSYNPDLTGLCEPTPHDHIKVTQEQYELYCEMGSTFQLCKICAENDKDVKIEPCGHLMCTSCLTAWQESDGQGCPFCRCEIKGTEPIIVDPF
Sequence of c-Cbl (P22681 47-435): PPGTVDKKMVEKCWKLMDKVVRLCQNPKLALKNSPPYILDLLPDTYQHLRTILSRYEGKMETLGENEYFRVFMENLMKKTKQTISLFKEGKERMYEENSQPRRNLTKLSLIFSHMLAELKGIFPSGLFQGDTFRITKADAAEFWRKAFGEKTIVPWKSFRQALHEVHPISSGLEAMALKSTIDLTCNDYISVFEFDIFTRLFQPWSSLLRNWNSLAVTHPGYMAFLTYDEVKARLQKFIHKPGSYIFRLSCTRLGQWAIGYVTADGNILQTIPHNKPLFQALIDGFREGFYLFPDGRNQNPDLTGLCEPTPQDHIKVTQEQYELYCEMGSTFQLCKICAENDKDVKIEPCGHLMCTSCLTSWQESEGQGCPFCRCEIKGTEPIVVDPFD

As usually defined, the IC50 is the midpoint of a concentration-inhibition curve. A high value points to lower potency. As for `Cn1cnnc1[C@H](F)C1(c2cccc(N3Cc4c(cc(CNC5(C)CCC5)cc4C(F)(F)F)C3=O)c2)COC1` [Compound 230, (R)-2-(3-(3-(fluoro(4-methyl-4H-1,2,4-triazol-3-yl)methyl)oxetan-3-yl)phenyl)-6-(((1-methylcyclobutyl)amino)methyl)-4-(trifluoromethyl)isoindolin-1-one], the IC50 at Cbl-b is 13 nM. Also, at c-Cbl, the half-maximal inhibitory concentration (IC50) was 11 nM and the “(fold-selectivity)” value is “(0.84x)”.
Taken in the same sequence, the figures for `Cn1cnnc1[C@H](F)C1(c2cccc(N3Cc4c(cc(CNCCCF)cc4C(F)(F)F)C3=O)c2)COC1` [Compound 231, (R)-2-(3-(3-(fluoro(4-methyl-4H-1,2,4-triazol-3-yl)methyl)oxetan-3-yl)phenyl)-6-(((3-fluoropropyl)amino)methyl)-4-(trifluoromethyl)isoindolin-1-one] were 9.8 nM, 81 nM and “(0.82x)”.
Taken in the same sequence, the figures for `Cn1cnnc1CC1(c2cccc(N3Cc4c(cc(CNC5(C)CCC5)cc4C(F)(F)F)C3=O)c2)CC(F)(F)C1` [Compound 232, 2-(3-(3,3-difluoro-1-((4-methyl-4H-1,2,4-triazol-3-yl)methyl)-cyclobutyl)phenyl)-6-(((1-methylcyclobutyl)amino)methyl)-4-(trifluoromethyl)isoindolin-1-one] were 11 nM, 8 nM and “(0.80x)”.
On the same counts, the results for `CC(C)[C@H]1CN(C)CCN1Cc1cc2c(c(C(F)(F)F)c1)CN(c1cc(C3([C@@H](F)c4nncn4C)CCC3)cc(NCCO)n1)C2=O` [Compound 233, 2-(4-(1-((R)-fluoro(4-methyl-4H-1,2,4-triazol-3-yl)methyl)cyclobutyl)-6-((2-hydroxyethyl)amino)pyridin-2-yl)-6-(((S)-2-isopropyl-4-methyl-piperazin-1-yl)methyl)-4-(trifluoromethyl)isoindolin-1-one] are 8.3 nM, 7.1 nM and “(0.94x)”.
As to `CC(C)[C@H]1CN(C)CCN1Cc1cc2c(c(C(F)(F)F)c1)CN(c1cc(C3([C@H](F)c4nncn4C)CCC3)cc(NCCO)n1)C2=O` [Compound 234, 2-(4-(1-((S)-fluoro(4-methyl-4H-1,2,4-triazol-3-yl)methyl)cyclobutyl)-6-((2-hydroxyethyl)amino)pyridin-2-yl)-6-(((S)-2-isopropyl-4-methylpiperazin-1-yl)methyl)-4-(trifluoromethyl)isoindolin-1-one], the 50% inhibitory concentration (IC50) against Cbl-b came out at 7.2 nM; on c-Cbl, 8.5 nM. Further, the “(fold-selectivity)” value on c-Cbl is recorded as “(1.2x)”.
On the same counts, the results for `Cn1cnnc1C(F)(F)C1(c2cccc(N3Cc4c(cc(CNC5(C)CCC5)cc4C(F)(F)F)C3=O)c2)CCC1` [Compound 235, 2-(3-(1-(difluoro(4-methyl-4H-1,2,4-triazol-3-yl)methyl)cyclobutyl)phenyl)-6-(((1-methylcyclobutyl)amino)methyl)-4-(trifluoro-methyl)isoindolin-1-one] are 15 nM, 21 nM and “(1.4x)”.
Take `CCNc1cc(C2(Cc3nncn3C)CC(F)(F)C2)cc(N2Cc3c(cc(CN4CCN(C)C[C@@H]4C(C)C)cc3C(F)(F)F)C2=O)n1` [Compound 236, (S)-2-(4-(3,3-difluoro-1-((4-methyl-4H-1,2,4-triazol-3-yl)methyl)-cyclobutyl)-6-(ethylamino)pyridin-2-yl)-6-((2-isopropyl-4-methylpiperazin-1-yl)methyl)-4-(trifluoromethyl)isoindolin-1-one formate]: the figures for the IC50 on Cbl-b and against c-Cbl were 7.1 nM and 8 nM, respectively.
As for `Cc1cn[nH]c1C(F)C1(c2cccc(N3Cc4c(cc(CN5CCN(C)C[C@@H]5C(C)C)cc4C(F)(F)F)C3=O)c2)COC1` (stereo partly drawn) [Compound 237, 2-(3-(3-(fluoro(4-methyl-1H-pyrazol-5-yl)methyl)oxetan-3-yl)-phenyl)-6-(((S)-2-isopropyl-4-methylpiperazin-1-yl)methyl)-4-(trifluoromethyl)isoindolin-1-one], the values for the IC50 at Cbl-b and on c-Cbl were 100 nM and 180 nM, respectively. Further, the “(fold-selectivity)” value at c-Cbl is on record as “(1.8x)”.
Take `Cn1cnnc1CC1(c2cc(NCC3CC3)nc(N3Cc4c(cc(CNC5(C)CCC5)cc4C(F)(F)F)C3=O)c2)CCC1` [Compound 238, 2-(6-((cyclopropylmethyl)amino)-4-(1-((4-methyl-4H-1,2,4-triazol-3-yl)methyl)cyclobutyl)pyridin-2-yl)-6-(((1-methylcyclobutyl)amino)methyl)-4-(trifluoromethyl)-isoindolin-1-one]: the IC50 against Cbl-b and against c-Cbl was 11 nM throughout. For the same molecule, the “(fold-selectivity)” value on c-Cbl is reported as “(1.0x)”.
As for `C=CC(=O)Nc1cc(C2(Cc3nncn3C)CCC2)cc(N2Cc3c(cc(CN4CCN(C)C[C@@H]4C(C)C)cc3C(F)(F)F)C2=O)n1` [Compound 239, (S)—N-(6-(6-((2-isopropyl-4-methylpiperazin-1-yl)methyl)-1-oxo-4-(trifluoromethyl)isoindolin-2-yl)-4-(1-((4-methyl-4H-1,2,4-triazol-3-yl)methyl)cyclobutyl)-pyridin-2-yl)acrylamide], the IC50 turned out to be 35 nM against Cbl-b and 48 nM against c-Cbl. Further, on c-Cbl, the “(fold-selectivity)” value was “(1.4x)”.
On the same counts, the results for `CC(C)[C@H]1CN(C)CCN1Cc1cc2c(c(C(F)(F)F)c1)CN(c1cccc(C3(Cc4nncn4C)CC(F)(F)C3)c1)C2=O` [Compound 240, (S)-2-(3-(3,3-difluoro-1-((4-methyl-4H-1,2,4-triazol-3-yl)methyl)-cyclobutyl)phenyl)-6-((2-isopropyl-4-methylpiperazin-1-yl)methyl)-4-(trifluoromethyl)iso-indolin-1-one] are 54 nM, 39 nM and “(0.71x)”.
Take `Cn1cnnc1CC1(c2cc(Cc3ccccc3)nc(N3Cc4c(cc(CNC5(C)CCC5)cc4C(F)(F)F)C3=O)c2)CCC1` [Compound 241, 2-(6-benzyl-4-(1-((4-methyl-4H-1,2,4-triazol-3-yl)methyl)cyclo-butyl)pyridin-2-yl)-6-(((1-methylcyclobutyl)amino)methyl)-4-(trifluoromethyl)isoindolin-1-one]: the values for the IC50 at Cbl-b and at c-Cbl were 21 nM and 16 nM, respectively. In addition, the “(fold-selectivity)” value on c-Cbl was “(0.77x)”.
On the same counts, the results for `Cn1cnnc1CC1(c2cccc(N3Cc4c(cc(CNC5(C)CCC5)cc4C(F)(F)F)C3=O)c2)CS(=O)(=O)C1` [Compound 242, 2-(3-(3-((4-methyl-4H-1,2,4-triazol-3-yl)methyl)-1,1-dioxido-thietan-3-yl)phenyl)-6-(((1-methylcyclobutyl)amino)methyl)-4-(trifluoromethyl)isoindolin-1-one] are 31 nM, 41 nM and “(1.3x)”.
For `Cc1cnnn1CC1(c2cccc(N3Cc4c(cc(CNC5(C)CCC5)cc4C(F)(F)F)C3=O)c2)COC1` [Compound 243, 2-(3-(3-((5-methyl-1H-1,2,3-triazol-1-yl)methyl)oxetan-3-yl)-phenyl)-6-(((1-methylcyclobutyl)amino)methyl)-4-(trifluoromethyl)isoindolin-1-one], the IC50 at Cbl-b was determined as 29 nM. Besides, at c-Cbl, the IC50 was found to be 47 nM and the “(fold-selectivity)” value is “(1.6x)”.

These data come from patent publication US20250230147A1, “LACTAMS AS CBL-B INHIBITORS” (Genentech, Inc., priority 2021, published 2025).
